The record followed here is ChEMBL document CHEMBL1201862, “PubChem BioAssay data set” (2004).

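1) Cells in 96-well plates. 2) Compound, 48 h, 5 concentrations. 3) Linear interpolation between surrounding doses. 4) Unreached endpoint = highest concentration. GI50 = concentration required for 50% inhibition of growth.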 Active and inactive are the calls of the source. No stated cut-off is given here; in the data, active = GI50 up to about 1.1 µM and inactive = higher.

Some test systems named below: NCI-H522; MCF7; UACC-62; RXF 393; HOP-62; SF-295; KM12; LOX IMVI; IGROV-1; SK-MEL-5; K562; CAKI-1; OVCAR-4; SK-OV-3; SNB-75; HCT-15; RPMI-8226; HCT-116; 786-0.
Experiment in all cases: NCI-60 cell line screen, 48 h

Regarding `O=C(O)C(Cc1cccs1)NC(=O)C(F)(F)F` (configuration not stated), the GI50 in the assay with NCI-H522, in the assay with MCF7, in the assay with UACC-62, with RXF 393, in the assay on HOP-62 and with SF-295 was > 100 µM (inactive) each time. The GI50 with KM12, in the assay on LOX IMVI, with IGROV-1, in the assay with SK-MEL-5, with K562 and in the assay on CAKI-1 was > 100 µM (inactive) in each case. In addition, the GI50 with OVCAR-4 is > 100 µM (inactive); with SK-OV-3 it was > 100 µM (inactive); in the assay on SNB-75, > 100 µM (inactive); in the assay with HCT-15, over 100 µM; in the assay on RPMI-8226 it was > 100 µM (inactive); in the assay on HCT-116, > 100 µM (inactive).
With `CC1CC(C)(O)C2C3(C)CCCC2(COC3=O)C12CCC1(CCOC1=O)O2` (configuration not stated), the GI50 in the assay on NCI-H522, with MCF7, in the assay with UACC-62, in the assay on RXF 393, in the assay on HOP-62 and with SF-295 was > 250 µM (inactive) in each case. Besides, the GI50 with KM12, in the assay with LOX IMVI, with IGROV-1, in the assay with SK-MEL-5, in the assay with K562 and in the assay on CAKI-1 was > 250 µM (inactive) throughout. Moreover, the GI50 was > 250 µM (inactive) in the assay with OVCAR-4; > 250 µM (inactive) with SK-OV-3; > 250 µM (inactive) in the assay on SNB-75; over 250 µM with HCT-15; > 250 µM (inactive) in the assay on RPMI-8226; > 250 µM (inactive) in the assay on HCT-116.
With `O=C1c2ccccc2C(O)(C(=O)O)C1(O)CC=C(Cl)Cl` (configuration not stated), the GI50 with NCI-H522, with MCF7, with UACC-62, with RXF 393, in the assay on HOP-62 and in the assay on SF-295 was > 125 µM (inactive) each time. Besides, the GI50 in the assay on KM12, in the assay with LOX IMVI, in the assay with IGROV-1, in the assay with SK-MEL-5, with K562 and in the assay on CAKI-1 was > 125 µM (inactive) throughout. Moreover, the GI50 with OVCAR-4 was > 125 µM (inactive); with SK-OV-3, > 125 µM (inactive); in the assay on SNB-75, > 125 µM (inactive); with HCT-15 it was over 125 µM; with RPMI-8226 it was > 125 µM (inactive); in the assay with HCT-116, > 125 µM (inactive).
Take `CC1(C)N=C(N)N=C(N)N1c1ccc(CCc2ccccc2)cc1`: the GI50 in the assay with NCI-H522 was 3.03 µM (inactive); with MCF7 it was 1.32 µM (inactive); in the assay with UACC-62, 1.02 µM (active); with RXF 393, > 20.9 µM (inactive); with SF-295 it was 2.17 µM (inactive); in the assay on KM12 it was 1.42 µM (inactive). The GI50 in the assay on LOX IMVI is 0.675 µM (active); in the assay on IGROV-1 it was 0.348 µM (active); in the assay with SK-MEL-5, 0.741 µM (active); in the assay on K562 it was 2.23 µM (inactive); with CAKI-1 it was 21.6 µM (inactive); with OVCAR-4 it was 3.53 µM (inactive). In addition, the GI50 was 48.4 µM (inactive) in the assay with SK-OV-3; 28.5 µM (inactive) with SNB-75; 37.9 µM with HCT-15; 17.4 µM (inactive) in the assay with RPMI-8226; 0.619 µM (active) in the assay on HCT-116.
For `CCOC(=O)c1c(-c2cccc(Cl)c2)c(C(=O)OC)c(C)c2sc(C=O)nc12`, the GI50 with NCI-H522 was 16 µM (inactive); in the assay with MCF7 it was 17.8 µM (inactive); in the assay on UACC-62, 15.8 µM (inactive); in the assay on RXF 393, 23.8 µM (inactive); in the assay on HOP-62, 13.6 µM (inactive); in the assay on SF-295 it was 15.8 µM (inactive). Further, the GI50 was 16.7 µM (inactive) in the assay on KM12; 14.3 µM (inactive) in the assay on LOX IMVI; 17.5 µM (inactive) in the assay on IGROV-1; 14.3 µM (inactive) in the assay on SK-MEL-5; 27.5 µM (inactive) with K562; 17.5 µM (inactive) in the assay on CAKI-1. The GI50 with OVCAR-4 is 20 µM (inactive); in the assay with SK-OV-3 it was 26.7 µM (inactive); with SNB-75, 21.6 µM (inactive); with HCT-15, 19.8 µM; in the assay with RPMI-8226 it was 14.1 µM (inactive); with HCT-116 it was 7.14 µM (inactive).
For `Cc1c2ccncc2c(C)c2c1[nH]c1ccccc12` [ELLIPTECINE], the GI50 with NCI-H522 is 1.16 µM (inactive); with MCF7 it was 0.571 µM (active); in the assay with UACC-62 it was 1.48 µM (inactive); with RXF 393, 0.288 µM (active); in the assay with HOP-62, 0.818 µM (active); in the assay on SF-295, 0.805 µM (active). The GI50 is 0.473 µM (active) in the assay on KM12; 0.536 µM (active) in the assay on LOX IMVI; 0.729 µM (active) in the assay with IGROV-1; 0.944 µM (active) in the assay on SK-MEL-5; 0.47 µM (active) with K562; 1.21 µM (inactive) in the assay on CAKI-1. Moreover, the GI50 in the assay on OVCAR-4 was 0.802 µM (active); in the assay on SK-OV-3, 1.61 µM (inactive); in the assay on SNB-75 it was 1.47 µM (inactive); in the assay with HCT-15 it was 0.402 µM; with RPMI-8226, 0.617 µM (active); with HCT-116, 0.272 µM (active).
For the compound `Oc1ccc(C(=C(Br)c2ccccc2)c2ccc(O)cc2)cc1`, the GI50 is 4.47 µM (inactive) with NCI-H522; 3.13 µM (inactive) in the assay with MCF7; 8.47 µM (inactive) in the assay on UACC-62; 12.1 µM (inactive) with RXF 393; 10.4 µM (inactive) with HOP-62; 6.14 µM (inactive) with SF-295. In addition, the GI50 in the assay on KM12 is 3.61 µM (inactive); with LOX IMVI it was 4.08 µM (inactive); in the assay with IGROV-1, 4.45 µM (inactive); with SK-MEL-5, 3.47 µM (inactive); with K562, 2.78 µM (inactive); in the assay with CAKI-1 it was 16.6 µM (inactive). Also, the GI50 in the assay with OVCAR-4 is > 10 µM (inactive); in the assay with SK-OV-3 it was 5.01 µM (inactive); in the assay on HCT-15 it was 3.72 µM; with 786-0 it was 9.77 µM (inactive); in the assay on RPMI-8226 it was 4.66 µM (inactive); with HCT-116, 4.25 µM (inactive).
In the case of `CC(C)CCCC(C)[C@H]1CCC(C2C[C@@H](O)[C@@H]3CC(O)[C@@H](O)C[C@]3(CO)C2=O)[C@]1(C)CCO` (some centres not stated), the GI50 with NCI-H522 was 26.3 µM (inactive); with MCF7 it was 14.2 µM (inactive); with UACC-62, 19.2 µM (inactive); in the assay on RXF 393 it was 24.9 µM (inactive); in the assay on HOP-62 it was 23.9 µM (inactive); in the assay with SF-295, 20.4 µM (inactive). The GI50 in the assay on KM12 is 14.3 µM (inactive); in the assay on LOX IMVI, 20.9 µM (inactive); with IGROV-1, 23.3 µM (inactive); in the assay on SK-MEL-5, 14.2 µM (inactive); in the assay on K562, 24.4 µM (inactive); in the assay on OVCAR-4, 30.6 µM (inactive). Moreover, the GI50 in the assay on SK-OV-3 is 25.8 µM (inactive); with SNB-75, 20.4 µM (inactive); with HCT-15 it was 28.8 µM; in the assay on RPMI-8226, 27.1 µM (inactive); with HCT-116 it was 20 µM (inactive).
